Laboratory results from patent publication US20020137704A1, “Methods of inhibiting host-cell mediated viral replication” (priority 2000, published 2002).

Legend:
HIV-2 LTR = test: HIV-2 enhancer CAT reporter assay in transfected U937 cells; type: cell-based, Human
Description: Cell Culture. Human U937 monocytic cells were maintained in RPMI 1640 medium containing 10% fetal bovine serum (GibcoBRL), penicillin (50 units/ml), streptomycin (50 μg/ml), and L-glutamine (2 mM).
Phosphatase Inhibition. […]
Transfections. 5 μg of CAT reporter construct, pCMV5 PP2Ac, and the empty pCMV5 vector were combined to yield 25 μg total DNA. U937 undergoing logarithmic growth were harvested at 5×10^5 cells/ml and resuspended at 25×10^6 cells/ml in RPMI 1640 media. 10^7 cells (0.4 ml) were aliquoted to 0.4 cm electroporation cuvettes (Invitrogen) and incubated with the appropriate DNA mixture for 5 min at room temperature. The cells were then electroporated using Invitrogen's Electroporator II at a setting of 330 V, 1000 μF, and infinite resistance with an input voltage of approximately 325 V. Following electroporation, the cells from each cotransfection were evenly split ([…]) and placed in separate tissue culture plates in 5 ml of RPMI1640 media+10% FBS. After a period of 12-16 hrs, one group of cells was left untreated while the other received 32 nM TPA for 24 hrs. The cells were then harvested, washed with PBS, and lysed in 0.25 M Tris-HCl (pH 7.5). Protein levels of the lysates were determined by BioRad's colorimetric protein assay (BioRad).
Chloramphenicol Acetyl Transferase (CAT) Assay. For CAT assays, 5-30 μl of cell lysate was combined with 20 μl of 100 mM Tris-HCl (pH 7.5). The final volume was increased to 50 μl with lysis buffer, if necessary, and the mixture incubated for 15 min at 65° C. to inactivate endogenous acetyltransferases. The lysates were then transferred to 7 ml scintillation vials and 200 μl CAT reaction mixture (125 mM Tris-HCl, 1.25 mM chloramphenicol, 0.1 μCi ^3H-acetyl CoA) added. Five ml of Econofluor (Fisher Scientific) scintillation fluid was overlaid and the reaction incubated for 15-90 min before counting. Background and total counts were determined by mixing 200 μl CAT reaction mixture with 5 ml of Econfluor or Scintiverse (Fisher Scientific) respectively. CAT activity was background subtracted and normalized for total amount of protein used.
To test the possibility that PP2A is involved in the activation of the HIV-2 LTR and that PP2A may act on the HIV-2 LTR through the pets site, U937 cells were transfected with an HIV-2 enhancer CAT reporter alone or with pCMV5 PP2Ac, a plasmid encoding the catalytic domain of PP2A. After transfection, cells from each condition were split into an untreated control sample, to assess the baseline effects of PP2A, or a sample that received 32 nM 12-O-tetradecanoyl phorbol-13-acetate (TPA) for 24 hrs. […]

HIV-1 = conditions: U1 cells; for inhibition of PMA-stimulated HIV-1 replication: RT assay
HIV-1 LTR = conditions: literature reports; cited from earlier work
U1 cells = test: Cellular viability of U1 cells treated with FST; type: cell-based
Description: The cellular viability was >100% for 10 μM FST compared to no treatment and 76.3% for 10 μM FST and PMA compared with PMA alone.

Structure (SMILES)	increase in CAT activity above baseline (HIV-2 LTR; 32 nM TPA, absence of ectopic PP2Ac, U937 cells, HIV-2 CAT reporter) [fold]	effect on synergy between PP2Ac and TPA in activating HIV-2 enhancer CAT reporter (HIV-2 LTR; 5 μg pCMV5 PP2Ac plus TPA, OKA 50-400 nM)	effect of OKA on CAT activity of TPA-treated cells (HIV-2 LTR; OKA 50-400 nM pretreatment 30 min prior to TPA, U937 cells)	maximal increase in CAT reporter activity (HIV-2 LTR; OKA alone for 18 hrs, maximal activity at 200 nM, U937 cells) [fold]	inhibition of PMA-stimulated HIV-1 replication (HIV-1; PMA 32 nM)	concentration dependence of inhibition of replication (HIV-1; PMA 32 nM, from 50 nM to 200 nM)	inhibition of HIV-1 replication in the absence of PMA (HIV-1; no PMA)	effect on the HIV-1 LTR (HIV-1 LTR)	cellular viability compared to no treatment (U1 cells; 10 μM FST) [%]	cellular viability compared with PMA alone (U1 cells; 10 μM FST and PMA) [%]	effect of treatment on cellular viability (U1 cells; treatment with FST)	reversal of PMA stimulation of HIV-1 replication (HIV-1; 10 μM, PMA 32 nM)
CCCCCCCCCCCCCC(=O)O[C@@H]1[C@@H](C)[C@@]2(O)[C@@H](C=C(CO)C[C@]3(O)C(=O)C(C)=C[C@@H]23)[C@@H]2C(C)(C)[C@]12OC(C)=O [TPA, 12-O-tetradecanoyl phorbol-13-acetate]	148											
C=C1[C@@H](O)[C@@H]2O[C@]3(CC[C@H](/C=C/[C@@H](C)[C@@H]4CC(C)=C[C@@]5(O[C@H](C[C@@](C)(O)C(=O)O)CC[C@H]5O)O4)O3)CC[C@H]2O[C@@H]1[C@@H](O)C[C@H](C)[C@H]1O[C@@]2(CCCCO2)CC[C@H]1C [okadaic acid]		significantly reduced in a dose dependent manner	decrease in CAT activity	150	inhibit PMA-stimulated HIV-1 replication	inhibited replication in a concentration dependent manner	no inhibition	activate the HIV-1 LTR				
C[C@@](O)(/C=C/[C@H]1CC=CC(=O)O1)[C@@H](C[C@@H](O)\C=C/C=C\C=C\CO)OP(=O)(O)O [fostreicin]					inhibit PMA-stimulated HIV-1 replication				> 100	76.3	minimally affected	totally reversed PMA stimulation of HIV-1 replication
